Where “and” joins values, the source holds several entries; their conditions need not be identical. Identical values can stand only once. Like-named read-outs stand apart in the source and are kept apart here.
Test: Phase I clinical trial, food effect part: pharmacokinetics of C21 fed vs fasted
Assay type: in vivo, human
Conditions: for AUC(0-t) / AUC(0-inf) / Cmax / Vd/F / half-life / Tmax: both sexes, human, plasma; for Tmax: read-out: tmax, Median
Protocol: In addition, the effect of food on the pharmacokinetics (PK) of C21 was investigated in an open label manner in 10 male and female subjects at a single oral dose of 75 mg.
Subjects were to receive two single doses of 75 mg of C21 at least 3 days apart in a randomised fashion either in fasted or in fed state. A Food and Drug Administration (FDA)-recommended high-fat breakfast was used to investigate maximum effects.
In the food effect part of the study, the subjects' ages ranged from 22 to 44 years with a median age of 36.0 years. Most of the subjects were Caucasian (9 (90.0% of) subjects) and male (8 (80.0% of) subjects). The mean (SD) BMI of overall subjects was 23.96 (2.223) kg/m^2.
C21 sodium salt as a pre-frozen oral solution (comprising 2.5 mg/mL C21 sodium salt sodium salt dissolved in an aqueous carbonate buffer) with a composition as shown in Table 1 below.
Plasma concentrations below the lower limit of quantification (LLOQ) were presented as below the lower limit of quantification (BLQ). Plasma concentrations for C21 were summarised by study part, dose cohort and nominal time point.
Pharmacokinetic parameters were calculated by non-compartmental analysis methods from the concentration-time data using Phoenix® WinNonlin® (Version 8.0) or higher following these guidelines: • Actual sampling times relative to dosing rather than nominal times were used in the calculation of all derived pharmacokinetic parameters. • There was no imputation of missing data. • Any subjects with missing concentration data were included in the PK analysis set provided that at least Cmax and AUC(0-t) could be reliably calculated.
All BLQ values pre-dose and in the absorption phase prior to the first quantifiable concentration were substituted by zeros. Single BLQs that fell between two evaluable concentrations were substituted by missing, before the calculation of the PK variables. Consecutive BLQs that fell between evaluable concentrations were substituted by zero, before the calculation of the PK variables. Terminal BLQ values were disregarded.
Bioequivalence of PK parameters from the open label food effect arm were determined by constructing 90% confidence intervals around the estimated difference between the Test and Reference treatments using a mixed effects model based on natural log transformed data. The mixed effects model was implemented using SAS Proc Mixed, with REML estimation method and Kenward-Roger degrees of freedom algorithm.
Natural logarithm transformed AUC(0-inf) (if data permitted), AUC(0-24) and Cmax were analysed using a mixed effects model with sequence, period and treatment as fixed effects and subject within sequence as a random effect. Estimates of the mean differences (Test-Reference) and corresponding 90% confidence intervals were obtained from the model. The estimated mean differences and 90% confidence intervals for the differences were exponentiated to provide estimates of the ratio of geometric means (Test/Reference) and 90% confidence intervals for the ratios. C21 in the fasted state is the Reference treatment and C21 in the fed state is the Test treatment.
The comparisons assessing the food effect (bioequivalence) were used to assess the effect of food on the rate and extent of absorption of C21 administered under fasted and fed conditions with estimates of the mean differences as well as corresponding 90% confidence intervals being presented.
The model is a mixed analysis of variance (ANOVA) model with a fixed term for sequence, period, treatment, and a random effect for subject within sequence.

[1] = 75 mg, fed (Test) vs fasted (Reference)
[2] = 75 mg, higher for the fed treatment
[3] = single oral dose 75 mg, Fasted, N = 9
[4] = single oral dose 75 mg, Fed, N = 10

AUC(0-24), Geometric Mean Ratio (Fed:Fasted) [1]: 0.45 and 0.449
AUC(0-inf), Geometric Mean Ratio (Fed:Fasted) [1]: 0.45 and 0.449
Cmax, Geometric Mean Ratio (Fed:Fasted) [1]: 0.16 and 0.155
CL/F, fed treatment compared to fasted treatment [2]: approximately 2 fold
VZ/F, fed treatment compared to fasted treatment [2]: 3 fold
food effect on pharmacokinetics (Phase I clinical trial in healthy subjects): a pronounced food effect was observed
AUC(0-t) (oral, 75 mg, Fasted (N = 9), mixed ANOVA model, read-out: AUC(0-24), Geometric Mean (95% CI), mixed effects model): 1710 ng·h/mL
AUC(0-inf) (oral, 75 mg, Fasted (N = 9), mixed ANOVA model, read-out: AUC(0-inf), Geometric Mean (95% CI), mixed effects model): 1710 ng·h/mL
Cmax (oral, 75 mg, Fasted (N = 9), mixed ANOVA model, read-out: Cmax, Geometric Mean (95% CI), mixed effects model): 1700 ng/mL
AUC(0-t) (oral, 75 mg, Fed (N = 10), mixed ANOVA model, read-out: AUC(0-24), Geometric Mean (95% CI), mixed effects model): 768 ng·h/mL
AUC(0-inf) (oral, 75 mg, Fed (N = 10), mixed ANOVA model, read-out: AUC(0-inf), Geometric Mean (95% CI), mixed effects model): 769 ng·h/mL
Cmax (oral, 75 mg, Fed (N = 10), mixed ANOVA model, read-out: Cmax, Geometric Mean (95% CI), mixed effects model): 263 ng/mL
Cmax (po, 75 mg, single oral dose 75 mg, Fasted, N = 9, plasma, read-out: Cmax, Arithmetic Mean): 1810 ng/mL
Cmax (po, 75 mg, single oral dose 75 mg, Fasted, N = 9, plasma, read-out: Cmax, Geometric Mean): 1710 ng/mL
AUC(0-t) (po, 75 mg, single oral dose 75 mg, Fasted, N = 9, read-out: AUC(0-6), Arithmetic Mean): 1850 ng·h/mL
AUC(0-t) (po, 75 mg, single oral dose 75 mg, Fasted, N = 9, read-out: AUC(0-6), Geometric Mean): 1760 ng·h/mL
AUC(0-t) (po, 75 mg, single oral dose 75 mg, Fasted, N = 9, read-out: AUC(0-12), Arithmetic Mean): 1860 ng·h/mL
AUC(0-t) (po, 75 mg, single oral dose 75 mg, Fasted, N = 9, read-out: AUC(0-12), Geometric Mean): 1770 ng·h/mL
AUC(0-t) (po, 75 mg, single oral dose 75 mg, Fasted, N = 9, read-out: AUC(0-24), Arithmetic Mean): 1860 ng·h/mL
AUC(0-inf) (po, 75 mg, single oral dose 75 mg, Fasted, N = 9, read-out: AUC(0-inf), Arithmetic Mean): 1860 ng·h/mL
AUC(0-inf) (po, 75 mg, single oral dose 75 mg, Fasted, N = 9, read-out: AUC(0-inf), Geometric Mean): 1770 ng·h/mL
AUC(0-t) (po, 75 mg, single oral dose 75 mg, Fasted, N = 9, read-out: AUC(0-t), Arithmetic Mean): 1840 ng·h/mL
AUC(0-t) (po, 75 mg, single oral dose 75 mg, Fasted, N = 9, read-out: AUC(0-t), Geometric Mean): 1750 ng·h/mL
Vd/F (po, 75 mg, single oral dose 75 mg, Fasted, N = 9, read-out: Vz/F, Arithmetic Mean): 36.6 L
Vd/F (po, 75 mg, single oral dose 75 mg, Fasted, N = 9, read-out: Vz/F, Geometric Mean): 34.8 L
half-life (po, 75 mg, single oral dose 75 mg, Fasted, N = 9, read-out: t1/2, Arithmetic Mean): < 60 min
half-life (po, 75 mg, single oral dose 75 mg, Fasted, N = 9, read-out: t1/2, Geometric Mean (converted)): 34.1 min
Tmax (po, 75 mg, single oral dose 75 mg, Fasted, N = 9): 40.2 min
Cmax (po, 75 mg, single oral dose 75 mg, Fed (high-fat breakfast), N = 10, plasma, read-out: Cmax, Arithmetic Mean): 269 ng/mL
Cmax (po, 75 mg, single oral dose 75 mg, Fed (high-fat breakfast), N = 10, plasma, read-out: Cmax, Geometric Mean): 263 ng/mL
AUC(0-t) (po, 75 mg, single oral dose 75 mg, Fed, N = 10, read-out: AUC(0-6), Arithmetic Mean): 747 ng·h/mL
AUC(0-t) (po, 75 mg, single oral dose 75 mg, Fed, N = 10, read-out: AUC(0-6), Geometric Mean): 732 ng·h/mL
AUC(0-t) (po, 75 mg, single oral dose 75 mg, Fed, N = 10, read-out: AUC(0-12), Arithmetic Mean): 790 ng·h/mL
AUC(0-t) (po, 75 mg, single oral dose 75 mg, Fed, N = 10, read-out: AUC(0-12), Geometric Mean): 767 ng·h/mL
AUC(0-t) (po, 75 mg, single oral dose 75 mg, Fed, N = 10, read-out: AUC(0-24), Arithmetic Mean): 792 ng·h/mL
AUC(0-t) (po, 75 mg, single oral dose 75 mg, Fed, N = 10, read-out: AUC(0-24), Geometric Mean): 768 ng·h/mL
AUC(0-inf) (po, 75 mg, single oral dose 75 mg, Fed, N = 10, read-out: AUC(0-inf), Arithmetic Mean): 792 ng·h/mL
AUC(0-inf) (po, 75 mg, single oral dose 75 mg, Fed, N = 10, read-out: AUC(0-inf), Geometric Mean): 768 ng·h/mL
AUC(0-t) (po, 75 mg, single oral dose 75 mg, Fed, N = 10, read-out: AUC(0-t), Arithmetic Mean): 767 ng·h/mL
AUC(0-t) (po, 75 mg, single oral dose 75 mg, Fed, N = 10, read-out: AUC(0-t), Geometric Mean): 742 ng·h/mL
Vd/F (po, 75 mg, single oral dose 75 mg, Fed, N = 10, read-out: Vz/F, Arithmetic Mean): 120 L
Vd/F (po, 75 mg, single oral dose 75 mg, Fed, N = 10, read-out: Vz/F, Geometric Mean): 118 L
half-life (po, 75 mg, single oral dose 75 mg, Fed, N = 10, read-out: t1/2, Arithmetic Mean): < 60 min
half-life (po, 75 mg, single oral dose 75 mg, Fed, N = 10, read-out: t1/2, Geometric Mean (converted)): 50.1 min
Tmax (po, 75 mg, single oral dose 75 mg, Fed, N = 10): 75.6 min
% AUCex, Arithmetic Mean [3]: 0.89%
CL/F, Arithmetic Mean [3]: 44.52 L/h
CL/F, Geometric Mean [3]: 42.44 L/h
Cav, Arithmetic Mean [3]: 77.4 ng/mL
Cav, Geometric Mean [3]: 73.6 ng/mL
Cmax, Geometric Mean (single oral dose 75 mg, Fed (high-fat breakfast), N = 10, plasma): 263.2 ng/mL
% AUCex, Arithmetic Mean [4]: 3.5%
AUC(0-12), Geometric Mean [4]: 767.4 ng·h/mL
CL/F, Arithmetic Mean [4]: 100.3 L/h
CL/F, Geometric Mean [4]: 97.59 L/h
Cav, Arithmetic Mean [4]: 33.0 ng/mL
Cav, Geometric Mean [4]: 32.0 ng/mL
SMILES: CCCCOC(=O)NS(=O)(=O)c1sc(CC(C)C)cc1-c1ccc(Cn2ccnc2)cc1 [C21, N-butyloxycarbonyl-3-(4-imidazol-1-ylmethylphenyl)-5-iso-butylthiophene-2-sulfonamide]

From patent US12121614B2, “Delayed release composition for peroral administration” (VICORE PHARMA AB, priority 2020, dated 2024)
